Measured values as given in US9012398B2, “Acylated exendin-4 compounds” (priority 2006, dated 2015).
Starred links: 1 amine or outer side, 2 acyl side, 3 side chain; linkers in the order of their positions; H or OH if unused. Residues, ends and D or L forms follow the SMILES beside them. Groups on a side chain read outwards from the residue. *: point of attachment. Palmitoyl(16-(5-tetrazolyl)) = O=C(CCCCCCCCCCCCCCCc1nnn[nH]1)*; γGlu = O=C(O)[C@H](CCC(=O)[*:2])N[*:1]; AEEA = NCCOCCOCC(=O)O

How the values were obtained:
human GLP-1 receptor = target: T1, human GLP-1 receptor (Homo sapiens, UniProt P43220); experiment: Functional receptor assay: cAMP formation in plasma membranes of BHK cells expressing the cloned human GLP-1 receptor (GLP1cAMPma); assay type: biochemical; conditions: cAMP, membranes with human GLP-1 receptor, mean value; read-out: GLP1cAMPma (3693) [EC50 (nM)] Mean Value
T1 construct: expressed in transfected cells; host or cells: BHK cells, clone BHK-467-12A; plasma membrane preparation
T1 sequence (P43220 24-463): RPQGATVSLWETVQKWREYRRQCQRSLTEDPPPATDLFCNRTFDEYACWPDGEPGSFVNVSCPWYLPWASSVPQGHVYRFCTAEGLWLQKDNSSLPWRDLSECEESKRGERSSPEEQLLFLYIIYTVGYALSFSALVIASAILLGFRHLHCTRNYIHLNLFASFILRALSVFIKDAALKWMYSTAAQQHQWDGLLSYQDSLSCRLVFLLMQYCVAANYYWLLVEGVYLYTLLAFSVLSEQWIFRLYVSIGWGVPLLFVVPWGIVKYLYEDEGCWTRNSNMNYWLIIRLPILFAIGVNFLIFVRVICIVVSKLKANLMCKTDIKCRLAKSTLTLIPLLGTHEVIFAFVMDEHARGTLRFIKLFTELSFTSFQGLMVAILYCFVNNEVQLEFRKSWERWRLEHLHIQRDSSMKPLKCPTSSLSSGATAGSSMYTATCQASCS
Method in brief: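 Membranes from BHK cells expressing human GLP-1 receptor (6 μg) were incubated 3 h at room temperature in Tris/HEPES buffer pH 7.4 with 1 mM ATP, 1 μM GTP and 0.5 mM IBMX. cAMP was quantified by AlphaScreen competition with biotinyl-cAMP. EC50 came from a four-parameter logistic fit.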

db/db mice = experiment: Pharmacodynamic study using db/db mice (blood glucose after subcutaneous dosing); assay type: in vivo; conditions: 30 nmol/kg subcutaneous
Procedure: The efficacy and duration of action were measured after dosing of 30 nmol/kg to db/db mice. Male db/db mice were shipped from Taconic, Denmark at the age of 8-10 weeks. From the time of arrival, the mice were housed under standard conditions but at 24° C. The mice were kept 10 per cage until experimentation with free access to standard chow (Altromin, Brogaarden APS., Denmark) and tap water at a normal day: light cycle (light on at 6 am). […] After this, the mice were euthanized.
After an acclimatisation period of 1 week, the blood glucose was measured by sampling from the tail tip capillary. In brief, 5 μl blood was sampled in heparinised glass capillary tubes and immediately suspended in 250 μl EBIO buffer solution (Eppendorf, Germany) in an 1.5 ml Eppendorf tube. The blood glucose concentration was measured by the glucose oxidase method at the EBIO Plus Auto analyser (Eppendorf, Germany).
The cut of value for blood glucose was 10 mM. When evaluating the mice, it was considered essential, that all 42 mice entering the experiment had blood glucose values above 10 mM, but also that the inter-mice variance was small. Therefore, if many mice were not severely diabetic, whereas some were, the start up of experiments was postponed one week and new basal blood glucose measurements were made.
Based on the basal blood glucose values, the mice were allocated to 7 groups of n=6 with matching group mean blood glucose values.
On the day of testing the basal blood glucose morning values were assessed as described above and the basal body weight of each mouse was assessed. A time 0, the compound was dosed subcutaneously in the scruff of the neck (dosing volume app. 300 μl/50 g mouse).
The blood glucose values were followed up to 48 hours (time 1, 3, 6, 24 and 48 h) and the terminal body weight was assessed.
All data were entered into Graphpad Prism where mean blood glucose and mean delta body weights were calculated.

EC50 (human GLP-1 receptor): 0.61 nM
Structure (SMILES): CC[C@H](C)[C@H](NC(=O)[C@H](Cc1ccccc1)NC(=O)[C@H](CC(C)C)NC(=O)[C@H](CCCNC(=N)N)NC(=O)[C@@H](NC(=O)[C@H](C)NC(=O)[C@H](CCC(=O)O)NC(=O)[C@H](CCC(=O)O)NC(=O)[C@H](CCC(=O)O)NC(=O)[C@H](CC(C)C)NC(=O)[C@H](CCC(N)=O)NC(=O)[C@H](CCCNC(=N)N)NC(=O)[C@H](CO)NC(=O)[C@H](CC(C)C)NC(=O)[C@H](CC(=O)O)NC(=O)[C@H](CO)NC(=O)[C@@H](NC(=O)[C@H](Cc1ccccc1)NC(=O)[C@@H](NC(=O)CNC(=O)[C@H](CCC(=O)O)NC(=O)CNC(=O)[C@@H](N)Cc1c[nH]cn1)[C@@H](C)O)[C@@H](C)O)C(C)C)C(=O)N[C@@H](CCC(=O)O)C(=O)N[C@@H](Cc1c[nH]c2ccccc12)C(=O)N[C@@H](CC(C)C)C(=O)N[C@@H](CCCNC(=N)N)C(=O)N[C@@H](CC(N)=O)C(=O)NCC(=O)NCC(=O)N1CCC[C@H]1C(=O)N[C@@H](CO)C(=O)N[C@@H](CO)C(=O)N[C@@H](CCCCNC(=O)COCCOCCNC(=O)CC[C@H](NC(=O)CCCCCCCCCCCCCCCc1nnn[nH]1)C(=O)O)C(=O)N[C@@H](C)C(=O)N1CCC[C@H]1C(=O)N1CCC[C@H]1C(=O)N1CCC[C@H]1C(=O)N[C@@H](CO)C(N)=O [Example 9] (H-HGEGTFTSDLSRQLEEEAVRLFIEWLRNGGPSSK([AEEA-γGlu-Palmitoyl(16-(5-tetrazolyl))])APPPS-NH2)
Delta AUC for blood glucose after 30 nmol/kg in db/db mice, 48 hours (db/db mice): −395 ± 222, *** mM × hour
